PMC8459971, “Evaluation of the hepatotoxicity of the novel GPR40 (FFAR1) agonist CPL207280 in the rat and monkey” (PLoS ONE, 2021)
“And” between values parts separate entries of the source, which are not always exact repeats. Equal entries are not always repeated.

Tested on: HepG2 cells
Test: Respiration in hepatocytes (Seahorse XF Mito stress test)
Assay type: cell-based, human
Details: for oxygen consumption rate, mito stress tracing: Fig2 A; for ECAR (Extracellular Acidification Rate) / OCR (Basal Oxygen Consumption rate): replicates

CC#C[C@@H](CC(=O)O)c1ccc(OCC(C)=C(C)C)cc1 [CPL207280]
oxygen consumption rate, mito stress tracing (HepG2, 0.3 uM, 34.6705 min): 80.249 and 97.2155 and 86.8514 | oxygen consumption rate, mito stress tracing (HepG2, 0.3 uM, 41.3548 min): 35.437 and 46.6744 and 43.9128 | oxygen consumption rate, mito stress tracing (HepG2, 0.3 uM, 47.9665 min): 35.8498 and 44.0725 and 43.5554 | oxygen consumption rate, mito stress tracing (HepG2, 0.3 uM, 54.5812 min): 34.6812 and 46.6208 and 43.7024 | oxygen consumption rate, mito stress tracing (HepG2, 0.3 uM, 61.2916 min): 130.123 and 163.716 and 142.011 | oxygen consumption rate, mito stress tracing (HepG2, 0.3 uM, 67.9128 min): 106.485 and 133.91 and 115.698 | oxygen consumption rate, mito stress tracing (HepG2, 0.3 uM, 74.5347 min): 96.5173 | oxygen consumption rate, mito stress tracing (HepG2, 1 uM, 34.6705 min): 100.011 and 78.8082 and 81.9508 | oxygen consumption rate, mito stress tracing (HepG2, 1 uM, 41.3548 min): 47.2411 and 41.158 and 37.0741 | oxygen consumption rate, mito stress tracing (HepG2, 1 uM, 47.9665 min): 46.2402 and 40.9403 and 37.3629 | oxygen consumption rate, mito stress tracing (HepG2, 1 uM, 54.5812 min): 47.0103 and 40.8472 and 36.7203 | oxygen consumption rate, mito stress tracing (HepG2, 1 uM, 61.2916 min): 170.96 and 125.782 and 138.858 | oxygen consumption rate, mito stress tracing (HepG2, 1 uM, 67.9128 min): 139.39 and 102.287 and 110.384 | oxygen consumption rate, mito stress tracing (HepG2, 1 uM, 74.5347 min): 123.934 and 92.2309 and 99.0802 | oxygen consumption rate, mito stress tracing (HepG2, 10 uM, 34.6705 min): 110.191 and 84.6025 and 86.6099 | oxygen consumption rate, mito stress tracing (HepG2, 10 uM, 41.3548 min): 53.0343 and 43.3081 and 40.0605 | oxygen consumption rate, mito stress tracing (HepG2, 10 uM, 47.9665 min): 52.304 and 44.0598 and 40.3019 | oxygen consumption rate, mito stress tracing (HepG2, 10 uM, 54.5812 min): 53.3375 and 43.9407 and 40.3833 | oxygen consumption rate, mito stress tracing (HepG2, 10 uM, 61.2916 min): 205.106 and 144.168 and 145.662 | oxygen consumption rate, mito stress tracing (HepG2, 10 uM, 67.9128 min): 156.881 and 114.329 and 108.157 | oxygen consumption rate, mito stress tracing (HepG2, 10 uM, 74.5347 min): 137.02 and 102.413 and 95.1094 | oxygen consumption rate, mito stress tracing (HepG2, 30 uM, 34.6705 min): 92.7755 and 86.7994 and 98.474 | oxygen consumption rate, mito stress tracing (HepG2, 30 uM, 41.3548 min): 47.1023 and 44.4378 and 48.0839 | oxygen consumption rate, mito stress tracing (HepG2, 30 uM, 47.9665 min): 46.5085 and 44.5297 and 49.242 | oxygen consumption rate, mito stress tracing (HepG2, 30 uM, 54.5812 min): 47.3133 and 45.4103 and 49.1801 | oxygen consumption rate, mito stress tracing (HepG2, 30 uM, 61.2916 min): 166.246 and 150.833 and 168.619 | oxygen consumption rate, mito stress tracing (HepG2, 30 uM, 67.9128 min): 122.701 and 115.579 and 125.99 | oxygen consumption rate, mito stress tracing (HepG2, 30 uM, 74.5347 min): 107.636 and 100.89 and 113.574 | oxygen consumption rate, mito stress tracing (HepG2, 100 uM, 34.6705 min): 67.4412 and 69.6068 and 55.4444 | oxygen consumption rate, mito stress tracing (HepG2, 100 uM, 41.3548 min): 37.8597 and 39.5148 and 33.1927 | oxygen consumption rate, mito stress tracing (HepG2, 100 uM, 47.9665 min): 37.9692 and 40.1535 and 34.8525 | oxygen consumption rate, mito stress tracing (HepG2, 100 uM, 54.5812 min): 38.5804 and 40.5605 and 35.0114 | oxygen consumption rate, mito stress tracing (HepG2, 100 uM, 61.2916 min): 98.1667 and 106.839 and 80.4832 | oxygen consumption rate, mito stress tracing (HepG2, 100 uM, 67.9128 min): 74.25 and 83.2846 and 59.4526 | ECAR (Extracellular Acidification Rate) (HepG2, 0.3 uM): 0.9978 and 0.9743 and 0.8743 | OCR (Basal Oxygen Consumption rate) (HepG2, 0.3 uM): 0.9555 and 0.9023 and 1.068 | ECAR (Extracellular Acidification Rate) (HepG2, 1 uM): 0.9613 and 0.9697 and 0.955 | OCR (Basal Oxygen Consumption rate) (HepG2, 1 uM): 0.9695 and 0.8683 and 1.043 | ECAR (Extracellular Acidification Rate) (HepG2, 10 uM): 1.014 and 1.053 and 0.9962 | OCR (Basal Oxygen Consumption rate) (HepG2, 10 uM): 1.0176 and 0.8931 and 1.143 | ECAR (Extracellular Acidification Rate) (HepG2, 30 uM): 0.995 and 1.079 and 1.004 | OCR (Basal Oxygen Consumption rate) (HepG2, 30 uM): 1.014 and 0.9586 and 1.1505 | ECAR (Extracellular Acidification Rate) (HepG2, 100 uM): 1.11 and 1.113 and 1.179 | OCR (Basal Oxygen Consumption rate) (HepG2, 100 uM): 1.005 and 0.9369 and 1.04 | EC50 of acidification of media (ECAR) (HepG2, Seahorse XF): absent
